Test [1] concerns super sensitive Gram-negative Escherichia coli (E. coli) BAS849. The test is described as follows: Antibacterial activity, microbroth dilution MIC, E. coli BAS849. The test is classed as cell-based. The settings on record: Escherichia coli; E. coli BAS849, microbroth dilution; read-out: MIC, BAS849. (Dilution methods test growth across graded concentrations, often in twofold steps.)

Test [2] deals with control Gram-negative E. coli 25922 strain. The test is described as follows: Antibacterial activity, microbroth dilution MIC, E. coli 25922. The settings on record: Escherichia coli; E. coli 25922, microbroth dilution; read-out: MIC, 25922. The test is classed as cell-based, Escherichia coli.
In test [3] the test system is Gram-positive Staphylococcus aureus (S. aureus) 29213. The test is described as follows: Antibacterial activity, microbroth dilution MIC, S. aureus 29213. The class given is cell-based. The settings on record: Staphylococcus aureus; S. aureus 29213, microbroth dilution; read-out: MIC, 29213.
Test [4] concerns quinolone resistant E. coli LZ3111. The test is described as follows: Antibacterial activity, MIC, quinolone resistant E. coli LZ3111. Conditions: Escherichia coli, read-out: MIC, LZ3111. The test is classed as cell-based, Escherichia coli. From the text: The antibacterial activity from a microbroth dilution method may be presented as the minimum inhibitory concentration (MIC in […]). The MIC value is the lowest concentration of a drug which prevents macroscopically visible bacterial growth under test conditions.
Mutations in these regions are known to confer a high level resistance to the quinolone class of antibiotics.

≈ marks a conversion by molar mass, not a printed value. Where only a bound is given, the exact number is not on record here.

Regarding `CCc1cc(C(=O)O)c(=O)[nH]c1-c1ccc(OC)cc1F` [Cpd 30, 5-ethyl-6-(2-fluoro-4-methoxyphenyl)-2-oxo-1,2-dihydropyridine-3-carboxylic acid], the MIC in test [1] lay in the range of 1 to 3.5 µg/mL (≈ 3.43 to 12 µM); in test [2] it was 12.5 to 150 µg/mL (≈ 42.9 to 515 µM); in test [3], 12.5 to 150 µg/mL (≈ 42.9 to 515 µM); in test [4], 12.5 to 150 µg/mL (≈ 42.9 to 515 µM).
In the case of `CCc1c(-c2c(OC)cc(OC)cc2OC)[nH]c(=O)c(C(=O)O)c1O` [Cpd 41, 5-ethyl-4-hydroxy-2-oxo-6-(2,4,6-trimethoxyphenyl)-1,2-dihydropyridine-3-carboxylic acid], the MIC in test [1], in test [2], in test [3] and in test [4] was 12.5 to 150 µg/mL (≈ 35.8 to 429 µM) throughout.
For `CCc1c(-c2ccc(OC)c(OC)c2OC)[nH]c(=O)c(C(=O)O)c1O` [Cpd 42, 5-ethyl-4-hydroxy-2-oxo-6-(2,3,4-trimethoxyphenyl)-1,2-dihydropyridine-3-carboxylic acid], the MIC in test [1] is below 1 µg/mL; in test [2] it was 12.5 to 150 µg/mL (≈ 35.8 to 429 µM); in test [3], 1 to 3.5 µg/mL (≈ 2.86 to 10 µM); in test [4] it was 12.5 to 150 µg/mL (≈ 35.8 to 429 µM).
Turning to `CCc1c(-c2ccc(N3CCCCC3)cc2F)[nH]c(=O)c(C(=O)O)c1O` [Cpd 44, 5-ethyl-6-[2-fluoro-4-(piperidin-1-yl)phenyl]-4-hydroxy-2-oxo-1,2-dihydropyridine-3-carboxylic acid], the minimum inhibitory concentration (MIC) in test [1] fell in the range of 1 to 3.5 µg/mL (≈ 2.77 to 9.71 µM); in test [2] it was 12.5 to 150 µg/mL (≈ 34.7 to 416 µM); in test [3], 1 to 3.5 µg/mL (≈ 2.77 to 9.71 µM); in test [4] it was 12.5 to 150 µg/mL (≈ 34.7 to 416 µM).
`CCc1c(-c2ccc(N3CCCC3)cc2OC)[nH]c(=O)c(C(=O)O)c1O` [Cpd 45, 5-ethyl-4-hydroxy-6-[2-methoxy-4-(pyrrolidin-1-yl)phenyl]-2-oxo-1,2-dihydropyridine-3-carboxylic acid]: the MIC fell in the range of 3.5 to 12.5 µg/mL (≈ 9.77 to 34.9 µM) in test [1], 12.5 to 150 µg/mL (≈ 34.9 to 419 µM) in test [2], 3.5 to 12.5 µg/mL (≈ 9.77 to 34.9 µM) in test [3] and 12.5 to 150 µg/mL (≈ 34.9 to 419 µM) in test [4].
As for `CCc1c(-c2ccc(N3CCCCC3)cc2OC)[nH]c(=O)c(C(=O)O)c1O` [Cpd 49, 5-ethyl-4-hydroxy-6-[2-methoxy-4-(piperidin-1-yl)phenyl]-2-oxo-1,2-dihydropyridine-3-carboxylic acid], the minimal inhibitory concentration (MIC) in test [1] fell in the range of 3.5 to 12.5 µg/mL (≈ 9.4 to 33.6 µM); in test [2], 12.5 to 150 µg/mL (≈ 33.6 to 403 µM); in test [3] it was 3.5 to 12.5 µg/mL (≈ 9.4 to 33.6 µM); in test [4], 12.5 to 150 µg/mL (≈ 33.6 to 403 µM).
Take `CCc1cc(C(=O)O)c(=O)[nH]c1-c1ccc(OC(C)(C)C)cc1` [Cpd 311, 6-(4-tert-butoxyphenyl)-5-ethyl-2-oxo-1,2-dihydropyridine-3-carboxylic acid]: the minimal inhibitory concentration (MIC) was 3.5 to 12.5 µg/mL (≈ 11.1 to 39.6 µM) in test [1], 12.5 to 150 µg/mL (≈ 39.6 to 476 µM) in test [2] and 12.5 to 150 µg/mL (≈ 39.6 to 476 µM) in test [3].
With `CCc1cc(C(=O)O)c(=O)[nH]c1-c1ccnn1C` [Cpd 344, 5-ethyl-6-(1-methyl-1H-pyrazol-5-yl)-2-oxo-1,2-dihydropyridine-3-carboxylic acid], the minimal inhibitory concentration (MIC) in test [1], in test [2] and in test [3] was 12.5 to 150 µg/mL (≈ 50.6 to 607 µM) each time.
As for `CCc1c(-c2ccnn2C)[nH]c(=O)c(C(=O)O)c1O` [Cpd 345, 5-ethyl-4-hydroxy-6-(1-methyl-1H-pyrazol-5-yl)-2-oxo-1,2-dihydropyridine-3-carboxylic acid], the MIC in test [1], in test [2] and in test [3] was 12.5 to 150 µg/mL (≈ 47.5 to 570 µM) in each case.
In the case of `CCc1cc(C(=O)O)c(=O)[nH]c1-c1cnn(C)c1` [Cpd 346, 5-ethyl-6-(1-methyl-1H-pyrazol-4-yl)-2-oxo-1,2-dihydropyridine-3-carboxylic acid], the minimum inhibitory concentration (MIC) in test [1], in test [2] and in test [3] was 12.5 to 150 µg/mL (≈ 50.6 to 607 µM) throughout.
For the molecule `CCc1c(-c2cnn(C)c2)[nH]c(=O)c(C(=O)O)c1O` [Cpd 347, 5-ethyl-4-hydroxy-6-(1-methyl-1H-pyrazol-4-yl)-2-oxo-1,2-dihydropyridine-3-carboxylic acid], the minimal inhibitory concentration (MIC) in test [1] fell in the range of 1 to 3.5 µg/mL (≈ 3.8 to 13.3 µM); in test [2], 3.5 to 12.5 µg/mL (≈ 13.3 to 47.5 µM); in test [3] it was 12.5 to 150 µg/mL (≈ 47.5 to 570 µM).

A word on the MIC: it is the smallest concentration in the dilution series that meets the test's criterion for growth inhibition.

For the origin of these results see patent US9650395B2, “Antibacterial compounds and methods for use” (PTC Therapeutics, Inc., priority 2011, dated 2017).
